What follows are compounds tested against T1, EGFR TMLRCS (BaF3-TMLRCS cell line) (Homo sapiens, UniProt P00533, C797S/L858R/T790M) (assay: HTRF Phospho EGFR TMLRCS assay (cellular)). Conditions: BaF3-TMLRCS cells, 4 hours incubation.
T1 construct: host or cells: Ba/F3 (BaF3-TMLRCS), puromycin-selected
Assay type: cell-based
Protocol: HTRF Phospho EGFR TMLRCS Assay (Cellular)
BaF3-TMLRCS cell line were obtained from Crownbio (San Diego, Calif., USA). Cells were maintained at 37° C., 5% CO2 in RPMI ATCC (Gibco 31870)+2 mM Glutamine+0.5 μg/ml Puromycin supplemented with 10% fetal bovine serum (FBS) (Gibco).
Cells are transferred as above to Greiner Bio-One, Nr. 784-08 micro-titerplate at 20000 cells/well in 12.5 μl of growth medium/well after the plates had been pre-filled with 12.5 nl of DMSO solutions of the to be tested compounds (in dose response) or DMSO only. After spinning the plates at 300×g for 30 seconds the cells were incubated for 4 hours at 37 C, 5% CO2, 95% humidity. The cells were lysed by adding to the compound mix 4 μl/well of the supplemented lysis buffer (Cis-bio, Phospho-EGFR HTRF kit, 64EG1PEH), followed by incubation for 30 min at room temperature with shaking (400 rpm). The plates were then frozen and stored overnight at −80 C. On the next day and after thawing the plates, 4 μl of a mixture of anti-Phospho-EGFR Cryptate and of anti-Phospho-EGFR-d2 antibody solutions prepared in the supplied detection buffer was added to each well. The lidded plates were then incubated for 4 h at room temperature before reading the fluorescence emission at 616 and 665 nm using an Envision reader (Perkin Elmer). Data was analyzed in similar fashion as above using the normalized ratio of the 665 to 616 signals multiplied by 10000.

T1 sequence (P00533 25-1210 T790M/C797S/L858R): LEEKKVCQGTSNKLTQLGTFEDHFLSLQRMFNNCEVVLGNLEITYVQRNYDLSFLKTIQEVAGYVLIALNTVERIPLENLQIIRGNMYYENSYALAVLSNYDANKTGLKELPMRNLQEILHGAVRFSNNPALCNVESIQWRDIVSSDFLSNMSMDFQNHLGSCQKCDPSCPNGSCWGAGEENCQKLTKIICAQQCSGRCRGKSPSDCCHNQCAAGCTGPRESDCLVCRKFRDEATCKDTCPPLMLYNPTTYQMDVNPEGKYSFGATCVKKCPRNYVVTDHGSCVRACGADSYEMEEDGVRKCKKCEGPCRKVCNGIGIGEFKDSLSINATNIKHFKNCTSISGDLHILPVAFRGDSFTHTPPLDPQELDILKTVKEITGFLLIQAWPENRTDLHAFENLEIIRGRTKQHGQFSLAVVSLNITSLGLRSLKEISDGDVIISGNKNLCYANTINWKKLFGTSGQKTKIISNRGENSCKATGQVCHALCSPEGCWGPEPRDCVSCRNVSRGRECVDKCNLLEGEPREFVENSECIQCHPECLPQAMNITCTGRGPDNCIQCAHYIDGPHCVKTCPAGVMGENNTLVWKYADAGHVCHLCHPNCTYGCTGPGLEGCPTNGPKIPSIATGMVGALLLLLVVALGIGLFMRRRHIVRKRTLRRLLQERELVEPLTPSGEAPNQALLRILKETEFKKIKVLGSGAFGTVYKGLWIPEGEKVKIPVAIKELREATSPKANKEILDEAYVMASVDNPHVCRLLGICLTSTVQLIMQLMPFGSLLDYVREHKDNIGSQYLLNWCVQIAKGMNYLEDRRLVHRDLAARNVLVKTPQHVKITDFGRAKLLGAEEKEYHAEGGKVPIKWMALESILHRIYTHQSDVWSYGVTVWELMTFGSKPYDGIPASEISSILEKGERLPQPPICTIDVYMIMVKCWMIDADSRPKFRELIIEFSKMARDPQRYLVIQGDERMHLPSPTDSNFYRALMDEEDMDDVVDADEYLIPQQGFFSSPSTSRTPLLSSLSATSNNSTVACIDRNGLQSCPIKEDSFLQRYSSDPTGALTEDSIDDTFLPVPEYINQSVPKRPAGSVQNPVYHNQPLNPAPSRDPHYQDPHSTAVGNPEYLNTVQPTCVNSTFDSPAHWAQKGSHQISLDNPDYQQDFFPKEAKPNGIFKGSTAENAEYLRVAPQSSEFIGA

IC50 [nM] | Compound
1 | O=C(Nc1nccs1)C(c1ncn2c1C[C@@H](F)C2)N1Cc2c(cc(C#Cc3ccc(CN4CCC(CO)CC4)cc3)cc2C(F)(F)F)C1=O (mixture of isomers) [Example 6, (2RS)-2-[(6R)-6-Fluoro-6,7-dihydro-5H-pyrrolo[1,2-c]imidazol-1-yl]-2-[6-[2-[4-[[4-(hydroxymethyl)-1-piperidyl]methyl]phenyl]ethynyl]-1-oxo-4-(trifluoromethyl)isoindolin-2-yl]-N-thiazol-2-yl-acetamide]
16 | CCN1CCC(c2ccc(-c3cc4c(c(C(F)F)c3)CN(C(C(=O)Nc3nccs3)c3ncn5c3C[C@@H](F)C5)C4=O)cc2)CC1 (mixture of isomers) [Example 7, (2RS)-2-[4-(Difluoromethyl)-6-[4-(1-ethyl-4-piperidyl)phenyl]-1-oxo-isoindolin-2-yl]-2-[(6R)-6-fluoro-6,7-dihydro-5H-pyrrolo[1,2-c]imidazol-1-yl]-N-thiazol-2-yl-acetamide]
3 | O=C(Nc1nccs1)C(c1ncn2c1C[C@@H](F)C2)N1Cc2c(cc(C#Cc3ccc(CN4CC5(CC(O)C5)C4)cc3)cc2C(F)(F)F)C1=O (mixture of isomers) [Example 9, (2RS)-2-[(6R)-6-Fluoro-6,7-dihydro-5H-pyrrolo[1,2-c]imidazol-1-yl]-2-[6-[2-[4-[(6-hydroxy-2-azaspiro[3.3]heptan-2-yl)methyl]phenyl]ethynyl]-1-oxo-4-(trifluoromethyl)isoindolin-2-yl]-N-thiazol-2-yl-acetamide]
2 | O=C(Nc1nccs1)C(c1ncn2c1C[C@@H](F)C2)N1Cc2c(cc(C#Cc3ccc(CN4CCC(CO)CC4)cc3)cc2C(F)F)C1=O (mixture of isomers) [Example 10, (2RS)-2-[4-(Difluoromethyl)-6-[2-[4-[[4-(hydroxymethyl)-1-piperidyl]methyl]phenyl]ethynyl]-1-oxo-isoindolin-2-yl]-2-[(6R)-6-fluoro-6,7-dihydro-5H-pyrrolo[1,2-c]imidazol-1-yl]-N-thiazol-2-yl-acetamide]
2 | O=C(Nc1nccs1)C(c1ncn2c1C[C@@H](F)C2)N1Cc2c(cc(C#Cc3ccc(CN4CCCC(O)CC4)cc3)cc2C(F)(F)F)C1=O (mixture of isomers) [Example 11, (2RS)-2-[(6R)-6-fluoro-6,7-dihydro-5H-pyrrolo[1,2-c]imidazol-1-yl]-2-[6-[2-[4-[[(4RS)-4-hydroxyazepan-1-yl]methyl]phenyl]ethynyl]-1-oxo-4-(trifluoromethyl)isoindolin-2-yl]-N-thiazol-2-yl-acetamide]
20 | CCN1CCC(c2ccc(-c3cc4c(c(C(F)(F)F)c3)CN(C(C(=O)Nc3nccs3)c3ncn5c3CCC5)C4=O)cc2)CC1 (racemic) [Example 2, (2RS)-2-(6,7-Dihydro-5H-pyrrolo[1,2-c]imidazol-1-yl)-2-[6-[4-(1-ethyl-4-piperidyl)phenyl]-1-oxo-4-(trifluoromethyl)isoindolin-2-yl]-N-thiazol-2-yl-acetamide]
1 | O=C(Nc1nccs1)C(c1ncn2c1CCC2)N1Cc2c(cc(C#Cc3ccc(CN4CCC(CO)CC4)cc3)cc2C(F)(F)F)C1=O (racemic) [Example 3, (2RS)-2-(6,7-Dihydro-5H-pyrrolo[1,2-c]imidazol-1-yl)-2-[6-[2-[4-[[4-(hydroxymethyl)-1-piperidyl]methyl]phenyl]ethynyl]-1-oxo-4-(trifluoromethyl)isoindolin-2-yl]-N-thiazol-2-yl-acetamide]
11 | CCN1CCC(c2ccc(-c3cc4c(c(C(F)F)c3)CN(C(C(=O)Nc3nccs3)c3ncn5c3CCC5)C4=O)cc2)CC1 (racemic) [Example 4, (2RS)-2-[4-(Difluoromethyl)-6-[4-(1-ethyl-4-piperidyl)phenyl]-1-oxo-isoindolin-2-yl]-2-(6,7-dihydro-5H-pyrrolo[1,2-c]imidazol-1-yl)-N-thiazol-2-yl-acetamide]
3 | O=C(Nc1nccs1)C(c1ncn2c1CCC2)N1Cc2c(cc(C#Cc3ccc(CN4CCC(CO)CC4)cc3)cc2C(F)F)C1=O (racemic) [Example 5, (2RS)-2-[4-(Difluoromethyl)-6-[2-[4-[[4-(hydroxymethyl)-1-piperidyl]methyl]phenyl]ethynyl]-1-oxo-isoindolin-2-yl]-2-(6,7-dihydro-5H-pyrrolo[1,2-c]imidazol-1-yl)-N-thiazol-2-yl-acetamide]
18 | CCN1CCC(c2ccc(-c3cc4c(c(C(F)F)c3)CN(C(C(=O)Nc3nccs3)c3ncn5c3CCC5)C4=O)cc2)[C@@H](F)C1 (mixture of isomers) [Example 8, (2RS)-2-[4-(Difluoromethyl)-6-[4-1(3R,4R)-1-ethyl-3-fluoro-4-piperidyl]phenyl]-1-oxo-isoindolin-2-yl]-2-(6,7-dihydro-5H-pyrrolo[1,2-c]imidazol-1-yl)-N-thiazol-2-yl-acetamide and (2RS)-2-[4-(difluoromethyl)-6-[4-1(3S,4S)-1-ethyl-3-fluoro-4-piperidyl]phenyl]-1-oxo-isoindolin-2-yl]-2-(6,7-dihydro-5H-pyrrolo[1,2-c]imidazol-1-yl)-N-thiazol-2-yl-acetamide]

Reference: patent US20220315591A1, “NEW EGFR INHIBITORS” (Hoffmann-La Roche Inc., priority 2019, published 2022)
